Test results published in US20120252829A1, “TIVOZANIB AND CAPECITABINE COMBINATION THERAPY” (priority 2011, published 2012).
Like-named read-outs stand apart in the source and are kept apart here.

Columns and labels:
[1] = target: VEGF receptor 3 (Homo sapiens, UniProt P35916); conditions: cited from earlier work
[2] = tested on: thymidine phosphorylase (TP); assay: TP induction in BH216-derived primary culture, qRT-PCR; format: cell-based, mouse; conditions: cultured BH216 tumor cells; 0.01-1000 nM, 3 hours
[3] = tested on: tumor; conditions: preclinical models; cited from earlier work
[4] = tested on: thymidine phosphorylase (TP); conditions: BH216 tumors; one dose at or about maximum tolerated dosage; tumors collected after 6 hours (also 24 hours for B20-4.1)
Method: Each of the VEGF inhibitors were administered at or about their respective maximum tolerated dosages.

[5] = 272-patient Phase 2 clinical trial; cited from earlier work
[6] = cited from earlier work
[7] = tested on: tumor blood vessels; assay: inhibition of angiogenesis in tumors; format: in vivo, mouse; conditions: tivozanib 5 mg/kg daily 5 weeks, capecitabine 300 mg/kg daily two weeks, seven day break, FIG. 4
Method: An experiment was designed to evaluate the effect of the combination therapy on angiogenesis (FIG. 4). Tivozanib was dosed at 5 mg/kg daily for 5 weeks. Capecitabine was dosed at 300 mg/kg daily for two weeks, followed by a seven day break, and then an additional two weeks of capecitabine at 300 mg/kg daily.

[8] = cited from earlier work; remark: listed apart in the source
[9] = tested on: thymidine phosphorylase (TP); assay: TP expression in murine breast tumors after tivozanib, qRT-PCR
Method: Murine breast tumors (BH216, BH225, BH229 and BH281) were introduced subcutaneously into nude mice. For each tumor type, when tumors reached approximately 250 mm^3, the mice were randomized into five groups, with three mice in each group. One group received vehicle (0.5% methyl-cellulose) and the remaining groups each received one dose of 5 mg/kg tivozanib. The mice were sacrificed and tumors collected at 0.5, 2, 6 and 16 hours post-dose. RNA was extracted from the tumors and TP expression was analyzed with qRT-PCR.

[10] = tested on: Her2-driven breast tumor (BH) model; assay: tumor growth in Her2-driven breast tumor (BH) mouse model; format: in vivo; conditions: tivozanib 5 mg/kg daily, capecitabine 300 mg/kg daily 2 weeks on, 1 week off, oral, more than 4 weeks; FIG. 1
Method: (§1) The Her2-driven breast tumor (BH) model used herein has the following genotype: MMTVrTTA, tetO HER2, INK4A(−/−), luciferase reporter.
When tumors reached approximately 200 mm^3, the mice were randomized into 4 groups of 10 mice each. One group received vehicle control. Each of the other 3 groups were treated with one of the two agents either administered alone or in combination. Both agents were administered orally.
Capecitabine was dosed at 300 mg/kg daily for two weeks followed by a one week break (2 weeks on, 1 week off) for more than 4 weeks.

[11] = tested on: Her2-driven breast tumor (BH) model; assay: tumor cell proliferation by Ki67 immunohistochemistry; format: in vivo, mouse
Method: as §1
To determine the mechanism of action of the combination therapy, capecitabine was administered alone and in combination with tivozanib, over two dosage cycles (FIG. 2A). Capecitabine was dosed at 300 mg/kg daily for two weeks, followed by a seven day break, and then an additional two weeks of capecitabine at 300 mg/kg daily. Tivozanib was dosed at 5 mg/kg daily for 5 weeks.

[12] = oral administration of capecitabine; human xenograft tumors in mice; cited from earlier work

VEGF receptor 3, sequence (P35916 25-1363): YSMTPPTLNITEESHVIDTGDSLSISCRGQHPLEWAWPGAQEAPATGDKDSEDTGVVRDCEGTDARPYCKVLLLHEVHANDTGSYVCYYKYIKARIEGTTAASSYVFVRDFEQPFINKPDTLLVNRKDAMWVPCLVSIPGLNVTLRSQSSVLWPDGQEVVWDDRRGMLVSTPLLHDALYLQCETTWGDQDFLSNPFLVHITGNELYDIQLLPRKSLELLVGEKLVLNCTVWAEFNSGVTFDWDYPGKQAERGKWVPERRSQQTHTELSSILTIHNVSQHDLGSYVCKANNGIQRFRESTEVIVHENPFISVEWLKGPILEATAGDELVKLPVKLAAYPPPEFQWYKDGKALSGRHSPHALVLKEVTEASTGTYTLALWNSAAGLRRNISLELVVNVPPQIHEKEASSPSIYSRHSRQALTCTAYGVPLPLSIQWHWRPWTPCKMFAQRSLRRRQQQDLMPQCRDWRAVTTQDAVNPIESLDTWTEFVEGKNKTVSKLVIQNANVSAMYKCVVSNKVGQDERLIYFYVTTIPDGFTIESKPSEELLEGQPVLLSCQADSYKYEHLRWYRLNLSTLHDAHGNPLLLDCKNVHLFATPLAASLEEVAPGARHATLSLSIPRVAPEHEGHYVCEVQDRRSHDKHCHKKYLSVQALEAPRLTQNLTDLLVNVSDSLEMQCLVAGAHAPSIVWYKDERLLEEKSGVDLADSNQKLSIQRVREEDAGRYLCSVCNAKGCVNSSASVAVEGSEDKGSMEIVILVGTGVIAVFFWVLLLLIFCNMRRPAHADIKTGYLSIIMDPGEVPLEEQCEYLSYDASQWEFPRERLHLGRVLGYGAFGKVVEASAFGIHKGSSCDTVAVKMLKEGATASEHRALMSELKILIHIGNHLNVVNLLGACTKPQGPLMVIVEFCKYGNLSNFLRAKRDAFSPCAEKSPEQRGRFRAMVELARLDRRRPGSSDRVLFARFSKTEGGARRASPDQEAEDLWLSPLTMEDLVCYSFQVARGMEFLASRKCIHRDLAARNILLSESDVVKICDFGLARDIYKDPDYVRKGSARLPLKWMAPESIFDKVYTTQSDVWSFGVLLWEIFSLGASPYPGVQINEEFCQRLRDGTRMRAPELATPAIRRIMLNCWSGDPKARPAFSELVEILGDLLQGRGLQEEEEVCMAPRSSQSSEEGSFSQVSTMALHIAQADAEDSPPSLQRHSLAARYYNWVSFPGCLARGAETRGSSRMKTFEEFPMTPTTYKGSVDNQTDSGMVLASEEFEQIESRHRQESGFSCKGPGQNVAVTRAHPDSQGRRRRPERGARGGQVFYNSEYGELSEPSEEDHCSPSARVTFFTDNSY

## COc1cc2nccc(Oc3ccc(NC(=O)Nc4cc(C)on4)c(Cl)c3)c2cc1OC [tivozanib, N-{2-chloro-4-[(6,7-dimethoxy-4-quinolyl)oxy]-phenyl}-N′-(5-methyl-3-isoxazolyl)urea]
[1]
  inhibitory activity: picomolar
[2]
  TP induction: TP induction was observed
[3]
  antitumor activity: exhibits antitumor activity
[4]
  TP induction: significant TP induction
[5]
  clinical trial results: positive results
[6]; Phase 1, Phase 2 and Phase 3 clinical trials
  most common side effects: hypertension and dysphonia
[7]
  angiogenesis: only a reduction in vessel size but not microvessel density
[8]; chronic dosing
  time for serum levels to reach steady state: 2-3 weeks
[8]; human body
  half-life: 91.2 to 113 h
[9]; BH216 tumors, 6 hours after tivozanib 5 mg/kg
  up-regulation of TP: approximately 8 fold
[9]; BH216 tumors, 16 hours post-dose, tivozanib 5 mg/kg
  TP expression: significant elevation in TP expression
[9]; BH229 tumor, tivozanib 5 mg/kg
  TP up-regulation: no TP up-regulation
[9]; BH281 tumor, tivozanib 5 mg/kg
  TP up-regulation: no TP up-regulation
[10]
  tumor growth: only moderate reduction in tumor growth

## O=c1[nH]cc(F)c(=O)[nH]1 [fluorouracil, 5-fluoro-2,4-(1H,3H)-pyrimidinedione]
[8]; after capecitabine, day 14 vs day 1
  area under the curve (AUC) of fluorouracil, higher at day 14 than day 1: 35%
[8]; relative to parent compound
  half-life of primary metabolite of capecitabine: same approximate half-life of the parent compound

## CCCCCOC(=O)Nc1nc(=O)n([C@@H]2O[C@H](C)[C@@H](O)[C@H]2O)cc1F [capecitabine, 5′-deoxy-5-fluoro-N-[(pentyloxy)carbonyl]-cytidine]
[11]; capecitabine 300 mg/kg daily, first two weeks
  tumor cell proliferation: reduced tumor cell proliferation
[11]; during break periods
  tumor cell proliferation between capecitabine cycles: tumor cell proliferation rebound
[12]
  5-FU AUC in tumors versus plasma: 100-200 fold
[6]; capecitabine, can be severe
  side effects: hand-and-foot syndrome (pain, swelling or redness of your hands or feet), diarrhea, nausea, vomiting, dehydration, sores in the mouth and throat, stomach area pain, tiredness or weakness, fever, and joint and muscle pain
[7]
  angiogenesis: no change in the angiogenesis profile
[8]; human body
  elimination half-life: approximately ¾
[10]
  tumor growth: only moderate reduction in tumor growth
